Results on two compounds are retold here after ChEMBL document CHEMBL3393032, “Synthesis of oolongtheanins and their inhibitory activity on micellar cholesterol solubility in vitro” (Bioorg Med Chem Lett, 2015).

This series can be described thus: Inhibition of micellar solubility of cholesterol assessed as cholesterol solubility at 10 g/L using [4-14C]cholesterol incubated at 37 degC for 1 hr by liquid scintillation counting method. It is filed as physicochemical. More on the design: scale not given: the % may be the effect or the level left.

Each structure is given as a SMILES string.

With `O=C(O[C@@H]1Cc2c(O)cc(O)cc2O[C@@H]1c1cc(O)c(O)c2c1[C@H]1C(=O)C(O)=C[C@@]1([C@H]1Oc3cc(O)cc(O)c3C[C@H]1OC(=O)c1cc(O)c(O)c(O)c1)O2)c1cc(O)c(O)c(O)c1`, the Activity is 1.4%.

As for `O=C1C(O)=C[C@@]2([C@H]3Oc4cc(O)cc(O)c4C[C@H]3O)Oc3c(O)c(O)cc([C@H]4Oc5cc(O)cc(O)c5C[C@H]4O)c3[C@@H]12`, the Activity was found to be 26.39%.
